Experimental findings from ChEMBL document CHEMBL5620430, “Design, synthesis and biological evaluation of indazole derivatives as selective covalent inhibitors of FGFR4 in wild-type and gatekeeper mutants” (Eur J Med Chem, 2023) are described below.

In series [1] the test system is Huh-7. Description: Induction of apoptosis in human Huh-7 cells assessed as late apoptotic cells at 2 uM measured after 48 hrs by AnnexinV-FITC/PI staining based flow cytometry (reference value: 2.55%). Format: functional.
A short description of series [2]: Toxicity in NSG mouse assessed as effect on CK level at 20 to 40 mg/kg […]. Format: organism-based. The note with it: in vivo, dose 20-40 mg/kg.
Series [3] in a line: AUC (0 to t) in Sprague-Dawley rat at 10 mg/kg, po by LC-MS/MS analysis. Format: ADME, organism-based. The note with it: in vivo.
The nature of series [4]: Toxicity in NSG mouse assessed as effect on LDL-C level at 20 to 40 mg/kg […]. Format: organism-based. Particulars: in vivo, dose 20-40 mg/kg.
Series [5] in a line: Toxicity in NSG mouse assessed as effect on spleen at 20 to 40 mg/kg by H and E staining based analysis. Format: organism-based. Particulars: in vivo, dose 20-40 mg/kg.
Series [6] is described as follows: Toxicity in NSG mouse assessed as effect on kidney at 20 to 40 mg/kg by H and E staining based analysis. The note with it: in vivo, dose 20-40 mg/kg. Format: organism-based.
For the next series, the system named is Hep 3B2. The experiment in a line: Antiproliferative activity against human Hep3B cells measured after 24 to 48 hrs by MTT assay. Format: functional, cell-based.
Series [7] deals with Huh-7. Description: Induction of cell cycle arrest in human Huh-7 cells assessed as accumulation of cells at G0/G1 phase at 1 to 2 uM measured after 48 hrs by propidium iodide staining based flow cytometry analysis. Format: functional. Particulars: dose 1-2 µM.
The nature of series [8]: Toxicity in NSG mouse assessed as effect on AST level at 20 to 40 mg/kg […]. Format: organism-based. Particulars: in vivo, dose 20-40 mg/kg.
For series [9], the target named is Fibroblast growth factor receptor 4 (Homo sapiens, UniProt P22455). Description: Inhibition of FGFR4 in human Huh-7 cells assessed as inhibition of MEK phosphorylation incubated for 2 hrs followed by compound washout and measured upto 8 hrs by Western blot analysis. Format: cell-based.
Series [10] is described as follows: Half life in Sprague-Dawley rat at 2 mg/kg, iv by LC-MS/MS analysis. Format: ADME, organism-based. The note with it: in vivo.
The subject of another series is BaF3. Description: cells. Particulars: Mus musculus.
For series [11], the system named is Huh-7. Description: Inhibition of colony formation in human Huh-7 cells assessed as reduction in number of colonies at 10 to 270 nM measured for 12 days. Format: functional, cell-based. The note with it: dose 10-270 nM, time 12.0 day.
Series [12] deals with Huh-7. The experiment in a line: Antitumor activity against human Huh-7 cells xenografted in ip dosed NSG mouse assessed as decrease in FGFR4 phosphorylation level administered twice per day for 2 weeks. Format: functional, organism-based. Particulars: dose 20-40 mg/kg.

The structures appear in SMILES notation. pIC50: −log10 of the molar value. Active and inactive are the calls of the source. The rule behind the calls is not given here.

Chain of Fibroblast growth factor receptor 4 (P22455 22-802 limits assumed): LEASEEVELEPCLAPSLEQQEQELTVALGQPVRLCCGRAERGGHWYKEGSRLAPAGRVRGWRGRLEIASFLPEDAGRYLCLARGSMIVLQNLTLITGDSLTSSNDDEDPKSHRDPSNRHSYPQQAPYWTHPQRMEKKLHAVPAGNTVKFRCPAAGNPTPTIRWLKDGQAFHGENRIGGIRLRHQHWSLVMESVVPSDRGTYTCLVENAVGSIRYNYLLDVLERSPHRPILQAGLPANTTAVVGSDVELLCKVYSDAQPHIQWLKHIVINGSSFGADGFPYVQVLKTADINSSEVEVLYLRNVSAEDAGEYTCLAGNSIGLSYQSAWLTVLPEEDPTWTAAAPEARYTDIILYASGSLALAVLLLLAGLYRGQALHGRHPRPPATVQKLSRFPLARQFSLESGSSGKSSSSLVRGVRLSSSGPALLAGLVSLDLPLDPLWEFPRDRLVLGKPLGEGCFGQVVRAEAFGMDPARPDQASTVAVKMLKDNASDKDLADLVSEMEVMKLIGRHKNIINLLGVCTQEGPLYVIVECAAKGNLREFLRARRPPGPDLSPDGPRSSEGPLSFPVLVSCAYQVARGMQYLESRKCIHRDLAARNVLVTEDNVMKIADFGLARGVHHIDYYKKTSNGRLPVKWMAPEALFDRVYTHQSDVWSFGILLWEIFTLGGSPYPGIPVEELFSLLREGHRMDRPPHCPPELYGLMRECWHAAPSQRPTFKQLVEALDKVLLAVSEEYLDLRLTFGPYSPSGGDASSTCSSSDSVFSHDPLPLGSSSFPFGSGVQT
Description for BaF3: Antiproliferative activity against mouse BaF3 cells harbouring ETV6-FGFR4-N535K mutant measured after 24 to 48 hrs by MTT assay

As to `C=CC(=O)Nc1cc2c(cc1-c1n[nH]c3ccc(O[C@H](C)c4c(Cl)cncc4Cl)cc13)CCN(C)C2`, the Activity is 11.39% with Huh-7 [1]; “Non-Toxic” in [2]; “Non-Toxic” in [4]; “Non-Toxic” in series [5]; “Non-Toxic” in series [6]; “Non-Toxic” in [8]. Moreover, in the series on Huh-7 [12], the Activity entry was “Dose-Dependent Effect”. The exposure AUC(0-t) in series [3] turned out to be 13 ng·h/mL. Moreover, the values for the pIC50 in the series on Hep 3B2 and in the series on BaF3 were 7.42 and 6.76, respectively. Also, in the series on Huh-7 [7], the result was Active. The inhibition entry (in series [9]; in the series with Huh-7 [11]) was “Active” in each case. In addition, the half-life in [10] is 7 h.
